# Test results taken from patent US10597388B2, “Pyridazinone herbicides” (FMC CORPORATION, priority 2014, dated 2020).
# Legend:
# Type in all cases: in vivo
# [1] = test system: galium (catchweed bedstraw, Galium aparine); experiment: Test A greenhouse herbicide test, postemergence; settings: for Galium plant response rating: 0 to 100 scale, 0 is no effect, 100 is complete control
# Procedure, shortened: (§1)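 Seedlings in a loam soil and sand mix received formulated compound postemergence at the one- to two-leaf stage. Greenhouse holding lasts approximately 10 d, then injury is scored visually relative to untreated plants, 0 meaning no effect and 100 complete control.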
# [2] = test system: blackgrass (Alopecurus myosuroides); experiment: Test A greenhouse herbicide test, postemergence; settings: for Blackgrass plant response rating: 0 to 100 scale, 0 is no effect, 100 is complete control
# Procedure, shortened: as §1
# [3] = test system: wheat (Triticum aestivum); experiment: Test A greenhouse herbicide test, pre- and postemergence; settings: Postemergence; for Wheat plant response rating: 0 to 100 scale, 0 is no effect, 100 is complete control
# From the text: (§2) Seeds of plant species selected from barnyardgrass (Echinochloa crus-galli), kochia (Kochia scoparia), ragweed (common ragweed, Ambrosia elatior), ryegrass, Italian (Italian ryegrass, Lolium multiflorum), crabgrass, large (large crabgrass, Digitaria sanguinalis), foxtail, giant (giant foxtail, Setaria faberii), momingglory (Ipomoea spp.), pigweed (Amaranthus retroflexus), velvetleaf (Abutilon theophrasti), wheat (Triticum aestivum), and corn (Zea mays) were planted into a blend of loam soil and sand and treated preemergence with a directed soil spray using test chemicals formulated in a non-phytotoxic solvent mixture which included a surfactant.
# (§3) At the same time, plants selected from these crop and weed species and also blackgrass (Alopecurus myosuroides), and galium (catchweed bedstraw, Galium aparine) were planted in pots containing the same blend of loam soil and sand and treated with postemergence applications of test chemicals formulated in the same manner. Plants ranged in height from 2 to 10 cm and were in the one- to two-leaf stage for the postemergence treatment. Treated plants and untreated controls were maintained in a greenhouse for approximately 10 d, after which time all treated plants were compared to untreated controls and visually evaluated for injury. Plant response ratings, summarized in Table A, are based on a 0 to 100 scale where 0 is no effect and 100 is complete control. A dash (-) response means no test result.
# [4] = test system: ragweed (common ragweed, Ambrosia elatior); experiment: as above
# From the text: as §2, §3
# [5] = test system: pigweed (Amaranthus retroflexus); experiment: as above
# From the text: as §2, §3
# [6] = test system: barnyardgrass (Echinochloa crus-galli); experiment: as above
# From the text: as §2, §3
# kochia (Kochia scoparia) = experiment: as above
# From the text: as §2, §3
# [7] = test system: foxtail, giant (giant foxtail, Setaria faberii); experiment: as above
# From the text: as §2, §3
# corn (Zea mays) = experiment: as above; settings: Postemergence; for Corn plant response rating: 0 to 100 scale, 0 is no effect, 100 is complete control
# From the text: as §2, §3
# [8] = test system: ryegrass, Italian (Italian ryegrass, Lolium multiflorum); experiment: as above
# From the text: as §2, §3
# [9] = 125 g ai/ha, 0 to 100 scale where 0 is no effect and 100 is complete control
# [10] = 500 g ai/ha, visual rating after approx. 10 d, 0 to 100 scale (0 no effect, 100 complete control)
# [11] = Postemergence, 125 g ai/ha, 0 to 100 scale where 0 is no effect and 100 is complete control
# [12] = Postemergence, 500 g ai/ha, visual rating after approx. 10 d, 0 to 100 scale (0 no effect, 100 complete control)
# [13] = Preemergence, 500 g ai/ha, 0 to 100 scale where 0 is no effect and 100 is complete control
# [14] = Preemergence, 125 g ai/ha, 0 to 100 scale where 0 is no effect and 100 is complete control
# [15] = 125 g ai/ha, visual rating after approx. 10 d, 0 to 100 scale (0 no effect, 100 complete control)
# [16] = Postemergence, 125 g ai/ha, visual rating after approx. 10 d, 0 to 100 scale (0 no effect, 100 complete control)
# [17] = Postemergence, 500 g ai/ha, 0 to 100 scale, 0 is no effect, 100 is complete control
# [18] = Preemergence, 500 g ai/ha, 0 to 100 scale, 0 no effect, 100 complete control
compound,measurement,setting,value
Cc1sc2ccc(C(F)(F)F)cc2c1-c1c(O)c(Cl)nn(C)c1=O [Compound 140],"Plant response rating, Galium",[1]; [9],70
same,"Plant response rating, Galium",[1]; [10],90
same,"Plant response rating, Blackgrass",[2]; [9],30
same,"Plant response rating, Blackgrass",[2]; [10],50
same,"Plant response rating, Wheat",[3]; [9],20
same,"Plant response rating, Wheat",[3]; [10],70
same,"Plant response rating, Ragweed",[4]; [11],90
same,"Plant response rating, Ragweed",[4]; [12],100
same,"Plant response rating, Ragweed",[4]; [13],90
same,"Plant response rating, Pigweed",[5]; [11],70
same,"Plant response rating, Pigweed",[5]; [12],90
same,Pigweed plant response rating,[5]; [14],50
same,"Plant response rating, Pigweed",[5]; [13],100
same,"Plant response rating, Barnyardgrass",[6]; [11],50
same,"Plant response rating, Barnyardgrass",[6]; [12],90
same,Barnyardgrass plant response rating,[6]; [14],50
same,"Plant response rating, Barnyardgrass",[6]; [13],70
same,"Plant response rating, Kochia",kochia (Kochia scoparia); [11],30
same,"Plant response rating, Kochia",kochia (Kochia scoparia); [12],70
same,Kochia plant response rating,kochia (Kochia scoparia); [14],0
same,"Plant response rating, Kochia",kochia (Kochia scoparia); [13],30
same,"Plant response rating, Foxtail, Giant",[7]; [11],40
same,"Plant response rating, Foxtail, Giant",[7]; [12],90
same,"Foxtail, Giant plant response rating",[7]; [14],50
same,"Plant response rating, Foxtail, Giant",[7]; [13],80
same,"Plant response rating, Corn",corn (Zea mays); [9],20
same,"Plant response rating, Corn",corn (Zea mays); [10],30
same,"Plant response rating, Ryegrass, Italian",[8]; [11],70
same,"Plant response rating, Ryegrass, Italian",[8]; [12],100
same,"Plant response rating, Ryegrass, Italian",[8]; [13],90
COc1nn(C)c(=O)c(-c2c(C)ccc3ccc(C)cc23)c1O [Compound 30],"Plant response rating, Galium",[1]; [15],70
same,Galium plant response rating,[1]; 500 g ai/ha,90
same,"Plant response rating, Blackgrass",[2]; [15],20
same,Blackgrass plant response rating,[2]; 500 g ai/ha,60
same,"Plant response rating, Wheat",[3]; [9],10
same,Wheat plant response rating,[3]; 500 g ai/ha,10
same,"Plant response rating, Ragweed",[4]; [16],40
same,Ragweed plant response rating,[4]; [17],70
same,Ragweed plant response rating,[4]; [14],0
same,"Plant response rating, Ragweed",[4]; [18],70
same,"Plant response rating, Pigweed",[5]; [16],90
same,Pigweed plant response rating,[5]; [17],90
same,Pigweed plant response rating,[5]; [14],80
same,"Plant response rating, Pigweed",[5]; [18],90
same,"Plant response rating, Barnyardgrass",[6]; [16],0
same,Barnyardgrass plant response rating,[6]; [17],30
same,Barnyardgrass plant response rating,[6]; [14],0
same,"Plant response rating, Barnyardgrass",[6]; [18],10
same,"Plant response rating, Kochia",kochia (Kochia scoparia); [16],60
same,Kochia plant response rating,kochia (Kochia scoparia); [17],80
same,Kochia plant response rating,kochia (Kochia scoparia); [14],0
same,"Plant response rating, Kochia",kochia (Kochia scoparia); [18],40
same,"Plant response rating, Foxtail, Giant",[7]; [16],0
same,"Foxtail, Giant plant response rating",[7]; [17],60
same,"Foxtail, Giant plant response rating",[7]; [14],0
same,"Plant response rating, Foxtail, Giant",[7]; [18],60
same,"Plant response rating, Corn",corn (Zea mays); [15],0
same,Corn plant response rating,corn (Zea mays); 500 g ai/ha,0
same,"Plant response rating, Ryegrass, Italian",[8]; [11],70
same,"Ryegrass, Italian plant response rating",[8]; [17],60
same,"Ryegrass, Italian plant response rating",[8]; [14],30
same,"Plant response rating, Ryegrass, Italian",[8]; [18],50
Cc1nn(C)c(=O)c(-c2cccc3ccc(C4CC4)cc23)c1O [Compound 71],"Plant response rating, Galium",[1]; [9],70
same,Galium plant response rating,[1]; 500 g ai/ha,90
same,"Plant response rating, Blackgrass",[2]; [9],30
same,Blackgrass plant response rating,[2]; 500 g ai/ha,40
same,"Plant response rating, Wheat",[3]; [9],0
same,Wheat plant response rating,[3]; 500 g ai/ha,20
same,"Plant response rating, Ragweed",[4]; [11],70
same,Ragweed plant response rating,[4]; [17],70
same,Ragweed plant response rating,[4]; [14],0
same,"Plant response rating, Ragweed",[4]; [13],20
same,"Plant response rating, Pigweed",[5]; [11],70
same,Pigweed plant response rating,[5]; [17],80
same,Pigweed plant response rating,[5]; [14],30
same,"Plant response rating, Pigweed",[5]; [13],100
same,"Plant response rating, Barnyardgrass",[6]; [11],0
same,Barnyardgrass plant response rating,[6]; [17],20
same,Barnyardgrass plant response rating,[6]; [14],0
same,"Plant response rating, Barnyardgrass",[6]; [18],20
same,"Plant response rating, Kochia",kochia (Kochia scoparia); [11],50
same,Kochia plant response rating,kochia (Kochia scoparia); [17],70
same,Kochia plant response rating,kochia (Kochia scoparia); [14],0
same,"Plant response rating, Kochia",kochia (Kochia scoparia); [13],20
same,"Plant response rating, Foxtail, Giant",[7]; [11],0
same,"Foxtail, Giant plant response rating",[7]; [17],20
same,"Foxtail, Giant plant response rating",[7]; [14],0
same,"Plant response rating, Foxtail, Giant",[7]; [13],50
same,"Plant response rating, Corn",corn (Zea mays); [9],0
same,Corn plant response rating,corn (Zea mays); 500 g ai/ha,20
same,"Plant response rating, Ryegrass, Italian",[8]; [11],30
same,"Ryegrass, Italian plant response rating",[8]; [17],90
same,"Ryegrass, Italian plant response rating",[8]; [14],0
same,"Plant response rating, Ryegrass, Italian",[8]; [13],70
Cc1nn(C)c(=O)c(-c2c(Cl)n(C)c3ccccc23)c1O [Compound 95],"Plant response rating, Galium",[1]; [9],20
same,Galium plant response rating,[1]; 500 g ai/ha,60
same,"Plant response rating, Blackgrass",[2]; [9],0
same,Blackgrass plant response rating,[2]; 500 g ai/ha,10
same,"Plant response rating, Wheat",[3]; [9],0
same,Wheat plant response rating,[3]; 500 g ai/ha,0
same,"Plant response rating, Ragweed",[4]; [11],0
same,Ragweed plant response rating,[4]; [17],10
same,Ragweed plant response rating,[4]; [14],0
same,"Plant response rating, Ragweed",[4]; [13],20
same,"Plant response rating, Pigweed",[5]; [11],0
same,Pigweed plant response rating,[5]; [17],0
same,Pigweed plant response rating,[5]; [14],0
same,"Plant response rating, Pigweed",[5]; [13],20
same,"Plant response rating, Barnyardgrass",[6]; [11],0
same,Barnyardgrass plant response rating,[6]; [17],10
same,Barnyardgrass plant response rating,[6]; [14],0
same,"Plant response rating, Barnyardgrass",[6]; [13],0
same,"Plant response rating, Kochia",kochia (Kochia scoparia); [11],0
same,Kochia plant response rating,kochia (Kochia scoparia); [17],10
same,Kochia plant response rating,kochia (Kochia scoparia); [14],0
same,"Plant response rating, Kochia",kochia (Kochia scoparia); [13],10
same,"Plant response rating, Foxtail, Giant",[7]; [11],0
same,"Foxtail, Giant plant response rating",[7]; [17],0
same,"Foxtail, Giant plant response rating",[7]; [14],0
same,"Plant response rating, Foxtail, Giant",[7]; [13],0
same,"Plant response rating, Corn",corn (Zea mays); [9],0
same,Corn plant response rating,corn (Zea mays); 500 g ai/ha,0
same,"Plant response rating, Ryegrass, Italian",[8]; [11],10
same,"Ryegrass, Italian plant response rating",[8]; [17],50
same,"Ryegrass, Italian plant response rating",[8]; [14],10
same,"Plant response rating, Ryegrass, Italian",[8]; [13],60
CCc1nn(CC)c(=O)c(-c2c(C)oc3ccc(C)cc23)c1O [Compound 64],"Plant response rating, Galium",[1]; [9],0
same,Galium plant response rating,[1]; 500 g ai/ha,0
same,"Plant response rating, Blackgrass",[2]; [9],0
same,Blackgrass plant response rating,[2]; 500 g ai/ha,0
same,"Plant response rating, Wheat",[3]; [9],0
same,Wheat plant response rating,[3]; 500 g ai/ha,0
same,"Plant response rating, Ragweed",[4]; [11],0
same,Ragweed plant response rating,[4]; [17],0
same,Ragweed plant response rating,[4]; [14],0
same,"Plant response rating, Ragweed",[4]; [18],0
same,"Plant response rating, Pigweed",[5]; [11],0
same,Pigweed plant response rating,[5]; [17],0
same,Pigweed plant response rating,[5]; [14],0
same,"Plant response rating, Pigweed",[5]; [18],0
same,"Plant response rating, Barnyardgrass",[6]; [11],0
same,Barnyardgrass plant response rating,[6]; [17],0
same,Barnyardgrass plant response rating,[6]; [14],0
same,"Plant response rating, Barnyardgrass",[6]; [18],0
same,"Plant response rating, Kochia",kochia (Kochia scoparia); [11],0
same,Kochia plant response rating,kochia (Kochia scoparia); [17],0
same,Kochia plant response rating,kochia (Kochia scoparia); [14],0
same,"Plant response rating, Kochia",kochia (Kochia scoparia); [18],0
same,"Plant response rating, Foxtail, Giant",[7]; [11],0
same,"Foxtail, Giant plant response rating",[7]; [17],0
same,"Foxtail, Giant plant response rating",[7]; [14],0
same,"Plant response rating, Foxtail, Giant",[7]; [18],0
same,"Plant response rating, Corn",corn (Zea mays); [9],0
same,Corn plant response rating,corn (Zea mays); 500 g ai/ha,0
same,"Plant response rating, Ryegrass, Italian",[8]; [11],0
same,"Ryegrass, Italian plant response rating",[8]; [17],0
same,"Ryegrass, Italian plant response rating",[8]; [14],0
same,"Plant response rating, Ryegrass, Italian",[8]; [18],0
